# What was measured:
# [1] = test system: urethral obstruction rats; details: rat, in vivo, po, 1 mg/kg
# Description: “Urinary retention” as used herein refers to a state where the urination volume is 3 hr=0.
# Rats at 45 days after urethral obstruction (φ1 mm, urethra was obstructed in rats at 9 weeks of age) were administered orally with nicorandil (3 mg/kg) or KRN2391 (1 mg/kg), subjected to water loading (30 ml/kg, po) and then monitored for their urination volume over 180 minutes (n=10 for each group).
# nNOS-Knockout mice [2] = assay: Urination dynamics (urination frequency, urination volume) in nNOS-Knockout mice, observation system for urination behavior; assay type: in vivo
# Text: There has been established no animal models of disease reflecting frequent urination in elderly male subjects. In carefully searching various kinds of information, nNOS-Knockout mice were pointed out to have a possibility as a model of frequent urination (dilatation of urinary bladder, hyperplasia of smooth muscle, lack of relaxation responses, see Non-patent Document 9 for its creation) in May, 1997 (Non-patent Document 10), but have not been studied as a therapeutic model. nNOS-Knockout mice have now been investigated for their possibility as a model of frequent urination by using an instrument (an observation system for urination behavior, Muromachi Kikai Co., Ltd., Japan) to determine urination dynamics (urination volume and urination frequency) of the mice. […]
# Nicorandil was given to nNOS-Knockout mice (8-13 months of age) by forced oral administration at 6 mg/kg/day for 7 days using a sound for oral administration. […]
# The daily urination frequency was measured with an observation system for urination behavior (Muromachi Kikai Co., Ltd., Japan). […]
# Furthermore, with the aim of clarifying the contribution of the nicorandil's nitrate-like action, pinacidil (SIGMA) known as a pure and potent KATP channel opener was also used for comparison of the urination frequency (FIG. 2).
# [3] = test system: non-anesthetized conscious rats; assay: Hypotensive effect (blood pressure) in non-anesthetized conscious rats after oral administration; assay type: in vivo, rat; details: compared at a dosage causing a 20 mmHg reduction in blood pressure, FIG. 4
# Description: In view of this fact, to study a hypotensive effect regarded as a side effect in the amelioration of frequent urination, both drugs were compared for their effect on blood pressure when orally administrated to non-anesthetized conscious rats (“non-anesthetized conscious rat” as used herein refers to an animal pre-treated such that a catheter for blood pressure measurement is inserted and placed in its femoral artery under anesthesia to ensure blood pressure monitoring, which animal is used on the following day after the anesthesia wears off). […] The measurement of blood pressure was performed as follows: the catheter for blood pressure measurement was connected to a blood pressure transducer (Nihon Kohden Corporation, Japan) and input into a polygraph (Nihon Kohden Corporation, Japan).
# KATP channel = details: report, Non-patent Document 7; cited from earlier work
# nNOS-Knockout mice [4] = assay: Daily urination volume in nNOS-Knockout mice (oliguria); assay type: in vivo; details: nNOS-Knockout mice 12-16 weeks, 1 mg/kg, 24 hours after administration, p<0.05
# [5] = test system: urethral obstruction rats; assay: Urination frequency after water loading in rat urethral obstruction model; assay type: in vivo; details: over 210 minutes
# Text: As described above, there are many causes that induce frequent urination, and dysuria-induced frequent urination is also known. A rat animal model of urethral obstruction has been reported as a model for efficacy verification of many ameliorating agents for frequent urination (Non-patent Documents 17 and 18). In this example, a midline incision was made in the lower quadrant of each rat (9 weeks of age) under pentobarbital anesthesia, and the proximal urethra was ligatured together with a stainless rod (φ1 mm) by using a 3-0 silk suture, followed by pulling out the rod to create a urethral obstruction model. At 45 days after urethral obstruction, the rats were subjected to water loading (30 ml/kg, po; “water loading” as used herein refers to forced oral administration of distilled water using a sound) and observed for their urination frequency over 210 minutes, such that animals having a urination frequency greater than that of normal animals (5 times) were selected as animals with frequent urination. These animals were administered orally with nicorandil (1 mg/kg) or KRN2391 (1 mg/kg) (dissolved in distilled water for water loading) and then observed for their urination frequency over 210 minutes (n=5 for each group).
# [6] = Enarmon-depot 3.6 mg/kg/day, sc, 7 days, n=5, vs control group (n=8), p<0.05
compound,measurement,setting,value
N#CNC(=NCCO[N+](=O)[O-])c1cccnc1 [KRN2391],number of animals without urination,[1],5 animals
same,urinary retention,[1],a state of urinary retention was observed
same,urination volume,[1],0.50 ± 0.30 mL
same,effect on daily urination frequency (ameliorating effect on urination),"nNOS-Knockout mice [2]; 1 mg/kg, p<0.05, FIG. 2",significant ameliorating effect
same,"amount producing hypotensive effect, smaller than nicorandil",[3],10 fold
same,"hypotensive effect due to KATP channel opening action, stronger than that of nicorandil",KATP channel,25 fold
same,effect on daily urination volume,nNOS-Knockout mice [4],significant inhibitory effect
same,reduction of urination frequency,"[5]; 1 mg/kg po, vs before administration",34.3%
same,urination frequency after administration,"[5]; 45 days after obstruction, 1 mg/kg po with water loading 30 ml/kg, n=5, p<0.05",2.4±0.8 times/210 minutes
CC(N/C(=N\C#N)Nc1ccncc1)C(C)(C)C (stereo not shown) [pinacidil],urination frequency,"nNOS-Knockout mice [2]; oral 0.3 mg/kg (dose strongly affecting the mouse cardiovascular system), FIG. 2",no significant decrease
"CCCCCCC(=O)O[C@H]1CC[C@H]2[C@@H]3CCC4=CC(=O)CC[C@]4(C)[C@H]3CC[C@]12C [testosterone, testosterone enanthate]",daily urination volume,"nNOS-Knockout mice [2]; Enarmon-depot 3.6 mg/kg/day, sc, 7 days, n=5, vs control group (n=8)",no change
same,single urination volume,nNOS-Knockout mice [2]; [6],significant increase
same,urination frequency,nNOS-Knockout mice [2]; [6],significant decrease

# Reference: patent publication US20080033018A1, “Therapeutic Agents For Overactive Bladder” (Chugai Seiyaku Kabushiki Kaisha, priority 2004, published 2008)
